The numbers were not newly measured in patent US10570425B2, “Engineered cyanobacterium and its application for producing acetate” (National Tsing Hua University, priority 2017, dated 2020), which cites them from elsewhere.

Data set [1] deals with phosphate acetyltransferases (Pta and EutD). Particulars: Acetyl-CoA forming reaction; for kcat/KmAc-P: substrate Ac-P; for kcat/KmCoA: substrate CoA.
The test system of data set [2] is phenylacetaldehyde dehydrogenase (PadA). Particulars: substrate of padA, Table 4.
The test system of data set [3] is padA. Particulars: substrate of padA as titled, Table 5.
Data set [4] addresses 3-hydroxypropionaldehyde dehydrogenase (AldH) (Escherichia coli, UniProt P23883). Particulars: substrate of AldH.
For data set [5], the target named is acetaldehyde dehydrogenase B (AldB) (Escherichia coli, UniProt P37685). Particulars: substrate of aldB.
acetaldehyde dehydrogenase B (AldB), sequence (P37685 whole entry): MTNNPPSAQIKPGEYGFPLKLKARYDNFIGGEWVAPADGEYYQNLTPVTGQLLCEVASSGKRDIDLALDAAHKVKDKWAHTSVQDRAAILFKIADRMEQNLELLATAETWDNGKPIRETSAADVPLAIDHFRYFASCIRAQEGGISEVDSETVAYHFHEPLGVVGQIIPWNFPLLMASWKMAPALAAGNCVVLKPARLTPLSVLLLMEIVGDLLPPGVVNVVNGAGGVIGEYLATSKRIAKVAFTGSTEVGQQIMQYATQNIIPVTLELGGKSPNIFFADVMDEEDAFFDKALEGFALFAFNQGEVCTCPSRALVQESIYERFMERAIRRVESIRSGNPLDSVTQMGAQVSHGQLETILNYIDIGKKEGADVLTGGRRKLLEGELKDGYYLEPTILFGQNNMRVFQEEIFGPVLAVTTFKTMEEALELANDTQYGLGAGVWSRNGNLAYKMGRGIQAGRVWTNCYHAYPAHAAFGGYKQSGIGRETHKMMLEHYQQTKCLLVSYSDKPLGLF

3-hydroxypropionaldehyde dehydrogenase (AldH), sequence (P23883 whole entry): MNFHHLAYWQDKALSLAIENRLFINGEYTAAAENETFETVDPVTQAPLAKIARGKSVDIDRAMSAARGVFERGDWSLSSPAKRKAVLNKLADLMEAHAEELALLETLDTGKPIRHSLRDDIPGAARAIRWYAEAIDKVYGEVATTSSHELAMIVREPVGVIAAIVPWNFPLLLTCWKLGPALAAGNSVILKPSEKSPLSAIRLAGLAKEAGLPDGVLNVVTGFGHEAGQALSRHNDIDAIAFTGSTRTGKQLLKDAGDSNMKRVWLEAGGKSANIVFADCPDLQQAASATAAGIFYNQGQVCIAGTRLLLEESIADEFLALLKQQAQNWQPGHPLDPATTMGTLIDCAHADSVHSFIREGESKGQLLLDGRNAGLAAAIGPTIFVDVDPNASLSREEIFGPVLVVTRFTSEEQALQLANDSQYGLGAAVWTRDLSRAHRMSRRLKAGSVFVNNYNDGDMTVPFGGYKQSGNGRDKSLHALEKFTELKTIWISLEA

As to “Ec-eutD: phosphate acetyltransferase EutD from Escherichia coli”, in data set [1], the kcat/KmAc-P is listed as 1.3 sec^−1μM^−1 and the kcat/KmCoA is on record as 12.6 sec^−1μM^−1.
In the case of `O=Cc1ccccc1` [Benzaldehyde], the Km (commonly the substrate concentration at which the rate is half of its maximum) was 8 µM in data set [2] and 150 µM in data set [3].
As for `O=CCCO` [3-Hydroxypropionaldehyde], the Km in data set [4] was 490 µM.
`O=CCCl` [Chloroacetaldehyde]: in data set [5], the Km was 3.6 µM.
`CC=O` [Acetaldehyde]: the Km in data set [2] was 2150 µM; in data set [5], 2.5 µM; in data set [4], 1000 µM; in data set [3], 15200 µM.
For `CCC=O` [Propionaldehyde], the Km in data set [2] was 11.6 µM; in data set [5], 5.8 µM; in data set [4], 1210 µM; in data set [3] it was 240 µM.

B1: Ec-pta: phosphate acetyltransferase Pta from Escherichia coli (protein, UniProt P0A9M8 2-714, looked up)
Phosphate acetyltransferase: SRIIMLIPTGTSVGLTSVSLGVIRAMERKGVRLSVFKPIAQPRTGGDAPDQTTTIVRANSSTTTAAEPLKMSYVEGLLSSNQKDVLMEEIVANYHANTKDAEVVLVEGLVPTRKHQFAQSLNYEIAKTLNAEIVFVMSQGTDTPEQLKERIELTRNSFGGAKNTNITGVIVNKLNAPVDEQGRTRPDLSEIFDDSSKAKVNNVDPAKLQESSPLPVLGAVPWSFDLIATRAIDMARHLNATIINEGDINTRRVKSVTFCARSIPHMLEHFRAGSLLVTSADRPDVLVAACLAAMNGVEIGALLLTGGYEMDARISKLCERAFATGLPVFMVNTNTWQTSLSLQSFNLEVPVDDHERIEKVQEYVANYINADWIESLTATSERSRRLSPPAFRYQLTELARKAGKRIVLPEGDEPRTVKAAAICAERGIATCVLLGNPAEINRVAASQGVELGAGIEIVDPEVVRESYVGRLVELRKNKGMTETVAREQLEDNVVLGTLMLEQDEVDGLVSGAVHTTANTIRPPLQLIKTAPGSSLVSSVFFMLLPEQVYVYGDCAINPDPTAEQLAEIAIQSADSAAAFGIEPRVAMLSYSTGTSGAGSDVEKVREATRLAQEKRPDLMIDGPLQYDAAVMADVAKSKAPNSPVAGRATVFIFPDLNTGNTTYKAVQRSADLISIGPMLQGMRKPVNDLSRGALVDDIVYTIALTAIQSAQQQ
In the case of B1, in data set [1], the kcat/KmAc-P was 0.25 sec^−1μM^−1 and the kcat/KmCoA is listed as 3.4 sec^−1μM^−1.
